Series [1] deals with S. aureus USA 300 ΔClpP. Nature of the series: Minimal inhibitory concentration, microbroth dilution. Format: cell-based, Staphylococcus aureus. The note with it: ClpP inactivated strain. How it is done:
(§1) Minimal inhibitory concentrations (“MICs”) were determined using the microbroth dilution method according to Clinical Laboratory Standards Institute (CLSI; National, C.F. C. L. S., Methods for Dilution Antimicrobial Susceptibility Tests for Bacteria Grow aerobically-Seventh Edition: Approved Standard M7-A7, CLSI, Wayne, Pa., USA, 2008) and were read by visual inspection. Two fold serial dilutions of test compound in 100 μL of the appropriate broth media were first prepared in 96-well round bottom microtiter plates (Nalgene Nunc International, Rochester, N.Y., USA). An equivalent volume (100 μL) of bacterial broth inocula containing approximately 10^5 bacterial cfu/mL was added to each well to give final concentrations of test compound starting at 200 μM. The plates were then incubated aerobically at 37° C. All strains were incubated overnight. After incubations, in all cases the MIC was recorded as the lowest concentration of drug that prevented bacterial growth. The bacterial strains for which MIC was determined as described in Table 4.
A general note: In broth dilution the organism is exposed to a series of concentrations in liquid medium.

The subject of series [2] is S. pyogenes ATCC 700294. The series is described as above. The note with it: Streptococcus pyogenes, ATCC700294, read-out: Minimal Inhibitory Concentration S. pyogenes ATCC 700294. Type of series: cell-based. How it is done: (§2) Minimal inhibitory concentrations (“MICs”) were determined using the microbroth dilution method according to Clinical Laboratory Standards Institute (CLSI; National, C.F. C. L. S., Methods for Dilution Antimicrobial Susceptibility Tests for Bacteria Grow aerobically-Seventh Edition: Approved Standard M7-A7, CLSI, Wayne, Pa., USA, 2008) and were read by visual inspection. Two fold serial dilutions of test compound in 100 μL of the appropriate broth media were first prepared in 96-well round bottom microtiter plates (Nalgene Nunc International, Rochester, N.Y., USA). […] The plates were then incubated aerobically at 37° C. All strains were incubated overnight. After incubations, in all cases the MIC was recorded as the lowest concentration of drug that prevented bacterial growth. The bacterial strains for which MIC was determined as described in Table 4.

Series [3] concerns S. pneumoniae R6. The description is as above. The note with it: Streptococcus pneumoniae, R6, read-out: Minimal Inhibitory Concentration S. pneumoniae R6. Type of series: cell-based. How it is done: as §2
Series [4] concerns the target T1, Sa-ClpP (Staphylococcus aureus, UniProt Q2G036).
T1 construct: made in house; host or cells: E. coli BL21 (DE3)
As to the kind of experiment: ClpP activation, EnzCheck Protease Assay with Bodipy-FL casein (second described method). Format: biochemical, S. aureus. The note with it: read-out: ClpP Activation EC50 (converted). How it is done: Alternatively, the assay was carried out using EnzCheck Protease Assay (Molecular Probes, Catalog #E6638). The assay was performed in black 384 well, flat bottom, low volume plates (Greiner Bio-One, Monroe, N.C., catalog #784076). 10 μL of Tris.HCl buffer, pH 8.0 with 0.01% Triton X-100 was pipetted into each well using a Well-Mate (Thermo Scientific, Waltham, Mass.). 0.4 μL test compounds or controls (2% DMSO v/v) were added to each well using a Biomek FX liquid handling robot (Beckman Coulter, Indianapolis Ind.). After addition of test compounds and controls, 10 μL of master mix containing 2 μM Sa-ClpP and 2 μM substrate (Bodipy-FL labeled casein) in Tris*HCl buffer, pH 8.0 with 0.01% (v/v) Triton X-100, was pipetted into each well. All assays were performed in triplicate, under linear velocity conditions. Increase in fluorescent signal following activation of Sa-ClpP by test compounds and controls was measured over time period of 30 mins using filters with excitation at 485±15 nm and emission at 520±25 nm on a PHERAstar FS Multilabel reader (BMG, Cary, N.C.). […] Data analysis was done by measuring rate of casein degradation over time (slopes). Computed degradation rates (slopes) were normalized to positive (ADEP4) or negative (DMSO) controls. Using nonlinear regression curve fitting EC50 values and % activation were determined using the equation “log [agonist]vs. Response-variable slope (four parameters)-symmetrical” in the program Prism 6 (GraphPad Software, La Jolla, Calif. USA, www.graphpad.com).

For series [5], the target named is T1, Sa-ClpP. As to the kind of experiment: ADEP displacement fluorescence polarization assay. Format: binding, S. aureus. The note with it: 1 μM Sa-ClpP, 50 nM FP probe ADEP 2591; read-out: ADEP Displacement IC50. As for the experimental part: A fluorescence polarization (FP) assay was used to determine the activity of the disclosed compounds in displacing an ADEP analogue from ClpP. Briefly, the assay was performed in black 384 well, flat bottom, low volume plates (Greiner Bio-One, Monroe, N.C., catalog #784076). 20 μL of a pre-equilibrated (1 hr, room temperature) master mix (1 μM Sa-ClpP, 2% DMSO (v/v) and 50 nM FP probe in Tris*HCl, pH 8.0)) was pipetted into each well using a Well-Mate (Thermo Scientific, Waltham, Mass.). Sa-ClpP was prepared as described above for the ClpP activation assay. The FP probe was ADEP 2591 (structure shown above). The ADEP 2591 comprises a TAMRA fluorophore linked to a core based on modified ADEP 2378 via a short alkyl linker. Using pin transfer, approximately 0.4 μL (2% v/v DMSO) of each compound or control was added per well. After addition of compounds and controls, plates were allowed to incubate for an additional 120 minutes at room temperature. All assays were performed in triplicate. Polarization was monitored using an EnVision Multilabel reader (Perkin-Elmer, Waltham, Mass.) by exciting the FP probe at 530±25 nm, and monitoring fluorescence intensity of both parallel and perpendicular polarized light at 579±25 nm. Readout was in millipolarization units (mP).
Signal gain and G factors were determined in wells containing 20 μM ADEP 2378, which had been previously verified (data not shown) as containing completely unbound ADEP 2591. Data collected was normalized to values obtained from positive (20 μM ADEP 2378) or negative (DMSO) controls. Curves were fit with non-linear regression using the equation “log [inhibitor]vs. Response-variable slope (four parameters)-symmetrical” in the program Prism 6 (GraphPad Software, La Jolla, Calif. USA, www.graphpad.com). The structures for ADEP 2378 and ADEP 2591 are shown above. ADEP 2378 is (E)-N-((S)-1-(((2R,6S,8aS,14aS,20S,23aS)-2,6-dimethyl-5,8,14,19,23-pentaoxooctadecahydro-1H,5H,14H,19H-pyrido[2,1-i]dipyrrolo[2,1-c:2′,1′-1][1]oxa[4,7,10,13]tetraazacyclohexadecin-20-yl)amino)-1-oxo-3-phenylpropan-2-yl)pent-2-enamide. ADEP 2591 is 5-(3-(3-((6S,9S,11aS,17S,20aS)-6,10-dimethyl-5,8,11,16,20-pentaoxo-17-((S)-2-((E)-pent-2-enamido)-3-phenylpropanamido)hexadecahydro-1H,5H,16H-dipyrrolo[2,1-c:2′,1′-1][1]oxa[4,7,10,13]tetraazacyclohexadecin-9-yl)propyl)thioureido)-2-(6-(dimethylamino)-3-(dimethyliminio)-3H-xanthen-9-yl)benzoate.

Series [6] deals with B. subtilis ATCC 23857. As to the kind of experiment: Minimal inhibitory concentration, microbroth dilution. Format: cell-based. The note with it: Bacillus subtilis, ATCC23857, read-out: Minimal Inhibitory Concentration B. subtilis ATCC 23857. How it is done:
as §1

Series [7] has as its system S. aureus ATCC 29213. The series is described as above. The note with it: Staphylococcus aureus, ATCC29213, read-out: Minimal Inhibitory Concentration S. aureus ATCC 29213. Type of series: cell-based. How it is done:
as §1

A short description of series [8]: Cytotoxicity assay, CellTiter-Glo cell viability. The note with it: African green monkey; Vero cells, 72 hours; read-out: Cytotoxicity IC50. Type of series: cell-based. As for the experimental part: Cytotoxicity was determined by determining the effect of compounds on cell viability. Vero (kidney epithelial cells; ATCC CCL-81) monolayers were trypsinized and 5000 cells/well were seeded (10-15% confluency) into white-wall, flat bottom 96 well microwell plates (Corning) using enriched Dulbecco's Modified Eagle's Medium (Hyclone: DMEM/High Glucose) containing 10% Fetal Bovine Serum (ATCC-30-2020). Plates were incubated overnight at 37° C. in the presence of 5% CO2. Drug-free media was then replaced with media containing serial dilutions of test compound or DMSO carrier. After an additional 72 hours of incubation, viability was indirectly measured using the CellTiter-Glo® Luminescent Cell Viability (Promega) assay. Assay plates were read at peak emission wavelength of 560 nm using a EnVision® Multilabel Plate Reader (Perkin Elmer) or PHERAstar FS Multilabel reader (BMG, Cary, N.C.). […] USA, www.graphpad.com]. For each experiment, compounds were tested in duplicate. IC50 values presented are the range of two biologically independent experiments.

Structures are written as SMILES. In brackets after ≈: the same amount, converted by molar mass.

T1 sequence (Q2G036 whole entry): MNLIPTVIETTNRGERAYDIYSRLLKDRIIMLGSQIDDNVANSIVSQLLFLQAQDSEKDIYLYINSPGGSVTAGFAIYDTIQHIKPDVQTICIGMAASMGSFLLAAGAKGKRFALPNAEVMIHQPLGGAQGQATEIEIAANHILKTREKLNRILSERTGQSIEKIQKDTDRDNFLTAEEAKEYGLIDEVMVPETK

With `Cc1ccc(NC(=O)N[C@@H](Cc2cc(F)cc(F)c2)C(=O)N[C@@H]2C(=O)N3CCCC3C(=O)N3CCOCC3C(=O)N[C@@H](C)C(=O)N3C[C@H](C)CC3C(=O)O[C@H]2C)cc1` (stereo partly drawn) [Compound 47, (S)-3-(3,5-Difluorophenyl)-2-(3-(P-Tolyl)Ureido)-N-((6aS,12S,13S,15aS,17R,21S,23aS)-13,17,21-Trimethyl-6,11,15,20,23-Pentaoxooctadecahydro-6H,11H,15H-[1,4]Oxazino[3,4-I]Dipyrrolo[2,1-C:2′,1′-L][1]Oxa[4,7,10,13]Tetraazacyclohexadecin-12-Yl)Propanamide], the “Minimal Inhibitory Concentration S. aureus USA 300 ΔClpP” value in series [1] was over 200 µM. The MIC worked out at 0.02 µM (≈ 0.0162 µg/mL) in series [2], 0.002 µM (≈ 0.00162 µg/mL) in series [3], 0.8 µM (≈ 0.648 µg/mL) in series [6] and 0.003 µM (≈ 0.00243 µg/mL) in series [7]. In addition, the concentration giving a half-maximal response (EC50) in series [4] was 0.4 ± 0.01 µM. For the same molecule, the IC50 in series [5] was 7.01 ± 0.3 µM.
Consider `Cc1ccc(NC(=O)N[C@@H](Cc2cc(F)cc(F)c2)C(=O)N[C@H]2COC(=O)C3C[C@H](C)CN3C(=O)[C@H](C)NC(=O)C3CCCCN3C(=O)C3CCCN3C2=O)cc1C` (stereo partly drawn) [Compound 48, (S)-3-(3,5-Difluorophenyl)-N-((2S,6S,8aS,14aS,20S,23aS)-2,6-Dimethyl-5,8,14,19,23-Pentaoxooctadecahydro-1H,5H,14H,19H-Pyrido[2,1-I]Dipyrrolo[2,1-C:2′,1′-L][1]Oxa[4,7,10,13]Tetraazacyclohexadecin-20-Yl)-2-(3-(3,4-Dimethylphenyl)Ureido)Propanamide], for which the “Minimal Inhibitory Concentration S. aureus USA 300 ΔClpP” value in series [1] stood at 200 µM. Also, the MIC in series [2] was determined as 3.1 µM (≈ 2.5 µg/mL); in series [3], 0.8 µM (≈ 0.646 µg/mL); in series [6], 0.2 µM (≈ 0.162 µg/mL); in series [7] it was 1.6 µM (≈ 1.29 µg/mL). Moreover, in series [4], the concentration giving a half-maximal response (EC50) was 0.7 ± 0.03 µM. For the same molecule, the IC50 in series [5] was found to be 8.1 ± 0.3 µM.
As to `Cc1ccc(NC(=O)N[C@@H](Cc2cc(F)cc(F)c2)C(=O)N[C@H]2COC(=O)C3C[C@@H](F)CN3C(=O)[C@H](C)NC(=O)C3CCCCN3C(=O)C3CCCN3C2=O)cc1` (stereo partly drawn) [Compound 51, (S)-3-(3,5-Difluorophenyl)-N-((2R,6S,8aS,14aS,20S,23aS)-2-Fluoro-6-Methyl-5,8,14,19,23-Pentaoxooctadecahydro-1H,5H,14H,19H-Pyrido[2,1-I]Dipyrrolo[2,1-C:2′,1′-L][1]Oxa[4,7,10,13]Tetraazacyclohexadecin-20-Yl)-2-(3-(P-Tolyl)Ureido)Propanamide], the “Minimal Inhibitory Concentration S. aureus USA 300 ΔClpP” value in series [1] is over 200 µM. The MIC in series [2] was 12.5 µM (≈ 9.97 µg/mL); in series [3], 6.3 µM (≈ 5.03 µg/mL); in series [6] it was over 200 µM; in series [7], 12.5 µM (≈ 9.97 µg/mL). For the same molecule, the EC50 in series [4] was 2.5 ± 0.2 µM. In series [5], the half-inhibitory concentration (IC50) is 9.71 ± 0.3 µM.
As for `Cc1ccc(NC(=O)N[C@@H](Cc2cc(F)cc(F)c2)C(=O)N[C@H]2COC(=O)C3C[C@H](F)CN3C(=O)[C@H](C)NC(=O)C3CCCCN3C(=O)C3CCCN3C2=O)cc1` (stereo partly drawn) [Compound 50, (S)-3-(3,5-Difluorophenyl)-N-((2S,6S,8aS,14aS,20S,23aS)-2-Fluoro-6-Methyl-5,8,14,19,23-Pentaoxooctadecahydro-1H,5H,14H,19H-Pyrido[2,1-I]Dipyrrolo[2,1-C:2′,1′-L][1]Oxa[4,7,10,13]Tetraazacyclohexadecin-20-Yl)-2-(3-(P-Tolyl)Ureido)Propanamide], in series [1], the “Minimal Inhibitory Concentration S. aureus USA 300 ΔClpP” value was over 200 µM. For the same molecule, the MIC in series [2] is 1.6 µM (≈ 1.28 µg/mL); in series [3] it was 0.8 µM (≈ 0.638 µg/mL); in series [6], over 200 µM; in series [7] it was 3.1 µM (≈ 2.47 µg/mL). In addition, the EC50 in series [4] is 0.9 ± 0.07 µM. Further, the IC50 in series [5] was found to be 7.66 ± 0.2 µM.
Turning to `Cc1ccc(NC(=O)N[C@@H](Cc2cc(F)cc(F)c2)C(=O)N[C@H]2COC(=O)C3C[C@H](C)CN3C(=O)[C@H](C)NC(=O)C3CCCCN3C(=O)C3CCCN3C2=O)cc1` (stereo partly drawn) [Compound 45, (S)-3-(3,5-Difluorophenyl)-N-((2S,6S,8aS,14aS,20S,23aS)-2,6-Dimethyl-5,8,14,19,23-Pentaoxooctadecahydro-1H,5H,14H,19H-Pyrido[2,1-I]Dipyrrolo[2,1-C:2′,1′-L][1]Oxa[4,7,10,13]Tetraazacyclohexadecin-20-Yl)-2-(3-(P-Tolyl)Ureido)Propanamide], in series [1], the “Minimal Inhibitory Concentration S. aureus USA 300 ΔClpP” value was found to be 100 µM. Also, the MIC worked out at 0.4 µM (≈ 0.318 µg/mL) in series [2], 0.1 µM (≈ 0.0794 µg/mL) in series [3] and 0.4 µM (≈ 0.318 µg/mL) in series [7]. Besides, in series [8], the concentration for half-maximal inhibition (IC50) at 72 h came to 56.8 ± 6.7 µM. Besides, in series [4], the EC50 is 0.54 ± 0.03 µM. In addition, the IC50 in series [5] worked out at 6.62 ± 0.2 µM.

A word on the EC50: it is the concentration that produces a half-maximal response. One may read the IC50 as the concentration at which inhibition is half-maximal.
